Experimental data from ChEMBL document CHEMBL1201862, “PubChem BioAssay data set” (2004).
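Where inhibition never reached the appropriate level, the endpoint shown equals the highest concentration tested. Otherwise, values were interpolated linearly from a five-concentration, 48-hour dose response in 96-well plates. GI50 marks 50% less growth.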 Calls of active or inactive are those of the source. Cut-off read from the data, not from the text of the source: active = GI50 up to about 1.1 µM and inactive = higher.

How the values were obtained:
Assay in all cases: DTP human tumour cell line panel, 48 h
786-0 = tested on: 786-0
A498 = tested on: A498
A549 = tested on: A549
ACHN = tested on: ACHN
CAKI-1 = tested on: CAKI-1
COLO 205 = tested on: COLO 205
DLD-1 = tested on: DLD-1
DMS-114 = tested on: DMS-114
DMS-273 = tested on: DMS-273
EKVX = tested on: EKVX
HCC 2998 = tested on: HCC 2998
HCT-116 = tested on: HCT-116
HCT-15 = tested on: HCT-15
HOP-18 = tested on: HOP-18
HOP-62 = tested on: HOP-62
HT-29 = tested on: HT-29
IGROV-1 = tested on: IGROV-1
K562 = tested on: K562
KM-20L2 = tested on: KM-20L2
KM12 = tested on: KM12
LOX IMVI = tested on: LOX IMVI
LXFL 529 = tested on: LXFL 529
M14 = tested on: M14
M19-MEL = tested on: M19-MEL
MOLT-4 = tested on: MOLT-4
Malme-3M = tested on: Malme-3M
NCI-H226 = tested on: NCI-H226
NCI-H23 = tested on: NCI-H23
NCI-H460 = tested on: NCI-H460
NCI-H522 = tested on: NCI-H522
OVCAR-3 = tested on: OVCAR-3
OVCAR-4 = tested on: OVCAR-4
OVCAR-5 = tested on: OVCAR-5
OVCAR-8 = tested on: OVCAR-8
RPMI-8226 = tested on: RPMI-8226
RXF 393 = tested on: RXF 393
SF-268 = tested on: SF-268
SF-295 = tested on: SF-295
SF-539 = tested on: SF-539
SK-MEL-28 = tested on: SK-MEL-28
SK-MEL-2 = tested on: SK-MEL-2
SK-MEL-5 = tested on: SK-MEL-5
SN12C = tested on: SN12C
SNB-19 = tested on: SNB-19
SNB-75 = tested on: SNB-75
SNB-78 = tested on: SNB-78
SR = tested on: SR
SW-620 = tested on: SW-620
TK-10 = tested on: TK-10
U-251 = tested on: U-251
UACC-257 = tested on: UACC-257
UACC-62 = tested on: UACC-62
UO-31 = tested on: UO-31
CCRF-CEM = tested on: CCRF-CEM
SK-OV-3 = tested on: SK-OV-3

CCOC(=O)[C@H]1Nc2ccc(C)cc2C2c3ccccc3CC21 (some centres not stated)
GI50 (786-0): > 100 µM (inactive)
GI50 (A498): 33.4 µM (inactive)
GI50 (A549): > 100 µM (inactive)
GI50 (ACHN): > 100 µM (inactive)
GI50 (CAKI-1): > 100 µM (inactive)
GI50 (COLO 205): > 100 µM (inactive)
GI50 (DLD-1): > 100 µM (inactive)
GI50 (DMS-114): > 100 µM (inactive)
GI50 (DMS-273): > 100 µM (inactive)
GI50 (EKVX): > 100 µM (inactive)
GI50 (HCC 2998): > 100 µM (inactive)
GI50 (HCT-116): > 100 µM (inactive)
GI50 (HCT-15): > 100 µM
GI50 (HOP-18): > 100 µM (inactive)
GI50 (HOP-62): > 100 µM (inactive)
GI50 (HT-29): > 100 µM (inactive)
GI50 (IGROV-1): > 100 µM (inactive)
GI50 (K562): > 100 µM (inactive)
GI50 (KM-20L2): > 100 µM (inactive)
GI50 (KM12): > 100 µM (inactive)
GI50 (LOX IMVI): > 100 µM (inactive)
GI50 (LXFL 529): > 100 µM (inactive)
GI50 (M14): > 100 µM (inactive)
GI50 (M19-MEL): > 100 µM (inactive)
GI50 (MOLT-4): > 100 µM (inactive)
GI50 (Malme-3M): > 100 µM (inactive)
GI50 (NCI-H226): > 100 µM (inactive)
GI50 (NCI-H23): > 100 µM (inactive)
GI50 (NCI-H460): > 100 µM (inactive)
GI50 (NCI-H522): > 100 µM (inactive)
GI50 (OVCAR-3): > 100 µM (inactive)
GI50 (OVCAR-4): > 100 µM (inactive)
GI50 (OVCAR-5): > 100 µM (inactive)
GI50 (OVCAR-8): > 100 µM (inactive)
GI50 (RPMI-8226): > 100 µM (inactive)
GI50 (RXF 393): 31.6 µM (inactive)
GI50 (SF-268): > 100 µM (inactive)
GI50 (SF-295): 74.1 µM (inactive)
GI50 (SF-539): > 100 µM (inactive)
GI50 (SK-MEL-28): > 100 µM (inactive)
GI50 (SK-MEL-2): > 100 µM (inactive)
GI50 (SK-MEL-5): > 100 µM (inactive)
GI50 (SN12C): > 100 µM (inactive)
GI50 (SNB-19): > 100 µM (inactive)
GI50 (SNB-75): 46.1 µM (inactive)
GI50 (SNB-78): > 100 µM (inactive)
GI50 (SR): > 100 µM (inactive)
GI50 (SW-620): > 100 µM (inactive)
GI50 (TK-10): > 100 µM (inactive)
GI50 (U-251): > 100 µM (inactive)
GI50 (UACC-257): 30.6 µM (inactive)
GI50 (UACC-62): > 100 µM (inactive)
GI50 (UO-31): > 100 µM (inactive)

Cc1ccc(NC(=O)CSc2nnc(Cc3ccccc3)o2)cc1
GI50 (786-0): > 100 µM (inactive)
GI50 (A498): > 100 µM (inactive)
GI50 (A549): > 100 µM (inactive)
GI50 (ACHN): > 100 µM (inactive)
GI50 (CAKI-1): > 100 µM (inactive)
GI50 (CCRF-CEM): > 100 µM (inactive)
GI50 (COLO 205): > 100 µM (inactive)
GI50 (DLD-1): > 100 µM (inactive)
GI50 (DMS-114): 53.2 µM (inactive)
GI50 (DMS-273): > 100 µM (inactive)
GI50 (EKVX): > 100 µM (inactive)
GI50 (HCC 2998): > 100 µM (inactive)
GI50 (HCT-116): > 100 µM (inactive)
GI50 (HCT-15): > 100 µM
GI50 (HOP-18): > 100 µM (inactive)
GI50 (HOP-62): > 100 µM (inactive)
GI50 (HT-29): > 100 µM (inactive)
GI50 (IGROV-1): > 100 µM (inactive)
GI50 (K562): > 100 µM (inactive)
GI50 (KM-20L2): > 100 µM (inactive)
GI50 (KM12): > 100 µM (inactive)
GI50 (LOX IMVI): > 100 µM (inactive)
GI50 (LXFL 529): > 100 µM (inactive)
GI50 (M14): > 100 µM (inactive)
GI50 (M19-MEL): > 100 µM (inactive)
GI50 (MOLT-4): > 100 µM (inactive)
GI50 (Malme-3M): > 100 µM (inactive)
GI50 (NCI-H226): > 100 µM (inactive)
GI50 (NCI-H23): > 100 µM (inactive)
GI50 (NCI-H460): > 100 µM (inactive)
GI50 (NCI-H522): > 100 µM (inactive)
GI50 (OVCAR-3): > 100 µM (inactive)
GI50 (OVCAR-4): > 100 µM (inactive)
GI50 (OVCAR-5): > 100 µM (inactive)
GI50 (OVCAR-8): 97.9 µM (inactive)
GI50 (RPMI-8226): > 100 µM (inactive)
GI50 (RXF 393): > 100 µM (inactive)
GI50 (SF-268): > 100 µM (inactive)
GI50 (SF-295): > 100 µM (inactive)
GI50 (SF-539): > 100 µM (inactive)
GI50 (SK-MEL-28): > 100 µM (inactive)
GI50 (SK-MEL-2): > 100 µM (inactive)
GI50 (SK-MEL-5): > 100 µM (inactive)
GI50 (SK-OV-3): > 100 µM (inactive)
GI50 (SN12C): > 100 µM (inactive)
GI50 (SNB-19): > 100 µM (inactive)
GI50 (SNB-75): > 100 µM (inactive)
GI50 (SNB-78): > 100 µM (inactive)
GI50 (SW-620): > 100 µM (inactive)
GI50 (TK-10): > 100 µM (inactive)
GI50 (U-251): > 100 µM (inactive)
GI50 (UACC-257): > 100 µM (inactive)
GI50 (UACC-62): > 100 µM (inactive)
GI50 (UO-31): > 100 µM (inactive)
